Measured values from patent publication US9353090B2, “Heterocyclic carboxylic acids as activators of soluble guanylate cyclase” (Boehringer Ingelheim International GmbH, priority 2014, dated 2016).
Values after ≈ are worked out from the molar mass of the structure shown.

Tests used:
[1] = biological target: human soluble guanylate cyclase alpha 1 and beta 1 subunits (sGC) (Homo sapiens (Human), UniProt Q02108+Q02153); experiment: sGC cellular activator assay (cGMP, HTRF), in the presence and absence of 50% human serum; assay type: cell-based; settings: CHO cells stably expressing human sGC alpha 1/beta 1, preincubated with 40 microM ODQ; cGMP by HTRF; Table 2 does not state whether with or without 50% human serum
Sequence of human soluble guanylate cyclase alpha 1 and beta 1 subunits (sGC) (Q02108 whole entry partner): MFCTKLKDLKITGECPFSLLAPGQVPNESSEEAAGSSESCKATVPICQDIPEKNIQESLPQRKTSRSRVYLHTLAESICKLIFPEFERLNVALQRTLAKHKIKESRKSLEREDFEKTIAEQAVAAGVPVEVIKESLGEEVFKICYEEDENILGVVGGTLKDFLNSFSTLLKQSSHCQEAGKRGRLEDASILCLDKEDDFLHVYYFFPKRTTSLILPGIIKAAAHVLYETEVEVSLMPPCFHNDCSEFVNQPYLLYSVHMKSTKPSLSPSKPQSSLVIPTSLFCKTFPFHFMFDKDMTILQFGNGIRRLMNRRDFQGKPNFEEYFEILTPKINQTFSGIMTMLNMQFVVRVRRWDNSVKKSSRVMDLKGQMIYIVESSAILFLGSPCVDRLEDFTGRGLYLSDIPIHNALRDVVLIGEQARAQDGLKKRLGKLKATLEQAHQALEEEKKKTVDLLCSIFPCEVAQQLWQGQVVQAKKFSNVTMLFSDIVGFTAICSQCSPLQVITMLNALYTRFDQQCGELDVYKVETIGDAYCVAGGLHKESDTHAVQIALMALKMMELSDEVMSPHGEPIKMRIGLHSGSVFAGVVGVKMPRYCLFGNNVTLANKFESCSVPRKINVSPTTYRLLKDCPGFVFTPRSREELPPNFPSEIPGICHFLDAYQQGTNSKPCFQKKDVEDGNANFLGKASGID
Sequence of human soluble guanylate cyclase alpha 1 and beta 1 subunits (sGC) (Q02153 whole entry): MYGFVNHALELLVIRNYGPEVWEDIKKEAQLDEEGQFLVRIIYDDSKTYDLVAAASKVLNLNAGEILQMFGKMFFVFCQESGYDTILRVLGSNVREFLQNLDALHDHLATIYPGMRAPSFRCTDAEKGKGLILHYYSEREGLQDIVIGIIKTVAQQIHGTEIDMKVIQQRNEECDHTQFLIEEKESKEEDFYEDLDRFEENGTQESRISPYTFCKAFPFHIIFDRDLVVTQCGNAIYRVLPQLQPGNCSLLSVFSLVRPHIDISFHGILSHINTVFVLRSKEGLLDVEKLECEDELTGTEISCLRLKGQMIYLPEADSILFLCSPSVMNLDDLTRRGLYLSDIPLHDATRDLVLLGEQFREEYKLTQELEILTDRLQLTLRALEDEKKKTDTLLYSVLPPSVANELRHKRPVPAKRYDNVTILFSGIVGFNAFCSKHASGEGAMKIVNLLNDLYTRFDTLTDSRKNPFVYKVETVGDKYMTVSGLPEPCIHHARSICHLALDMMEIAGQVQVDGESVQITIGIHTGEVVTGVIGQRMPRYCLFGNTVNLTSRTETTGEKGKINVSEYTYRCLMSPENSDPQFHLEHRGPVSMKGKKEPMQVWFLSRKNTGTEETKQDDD
Procedure, shortened: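 Heme-oxidized conditions: ODQ (40 microM, 1 h) pretreatment of CHO cells stably expressing human α1/β1 sGC, in buffer containing 0.1% BSA and IBMX.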

[2] = Human liver microsome (HLM) metabolic stability assay; assay type: in vitro ADME; settings: human liver microsomes
Procedure, shortened: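 Compound at 1 uM incubated with human liver microsomes at 37° C. for 60 min after NADPH addition. Aliquots quenched in cold acetonitrile at 0, 5, 15, 30 and 60 min and analysed by LC/MS/MS. t1/2 from ln(% remaining) vs time slope; CLint, CLh and % Qh derived from it (n=1).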

[3] = physchem; settings: kinetic from dmso stock
[4] = pH 2.2, aqueous buffer, Solubility (pH 2.2)
[5] = pH 4.5, aqueous buffer, Solubility (pH 4.5)
[6] = pH 6.8, aqueous buffer, Solubility (pH 6.8)

| Compound | EC50 [1] [nM] | Metabolic stability (Qh %), % hepatic blood flow [2] [%] | solubility at 24 h [3, 4] [µg/mL] | solubility at 24 h [3, 5] [µg/mL] | solubility at 24 h [3, 6] [µg/mL] |
| --- | --- | --- | --- | --- | --- |
| CCO[C@H]1CN(c2nc(-c3cccc(C)c3OCc3cc4c(c(OC)c3)CN(C3CCOCC3)CC4)cs2)CC[C@H]1C(=O)O [Compound 232] | 330 | <24 | 142 (≈ 229 µM) | 131 (≈ 211 µM) | 131 (≈ 211 µM) |
| CCO[C@H]1CN(c2cccc(-c3cccc(C)c3OCc3cc4c(c(OC)c3)CN(C3CCOCC3)CC4)n2)CC[C@H]1C(=O)O [Compound 234] | 257 | 55 | 128 (≈ 207 µM) | 124 (≈ 201 µM) | 117 (≈ 190 µM) |
| COC[C@H]1N(c2nccc(-c3cccc(C)c3OCc3cc(C)c4c(c3)CCN(C3CCOCC3)C4)n2)CC2C[C@@]21C(=O)O (some centres unmarked) [Compound 237] | 42 | <24 | 156 (≈ 260 µM) | 136 (≈ 227 µM) | 143 (≈ 238 µM) |
| CCO[C@@H]1CN(c2cccc(-c3cccc(C)c3OCc3ccc4c(c3C)CCN(C3CCOCC3)CC4)n2)CC[C@@H]1C(=O)O [Compound 239] | 5 | 87 | 126 (≈ 205 µM) | 123 (≈ 200 µM) | 117 (≈ 191 µM) |
| CCO[C@@H]1CN(c2cccc(-c3cc(C)ccc3OCc3ccc4c(c3C)CCN(C3CCOCC3)CC4)n2)CC[C@@H]1C(=O)O [Compound 240] | 5 | 73 | 123 (≈ 200 µM) | 118 (≈ 193 µM) | 117 (≈ 190 µM) |
| CO[C@H]1CN(c2nc(-c3cccc(C)c3OCc3cc(C)c4c(c3F)CCN(C3CCOCC3)C4)cs2)CC[C@H]1C(=O)O [Compound 242] | 4 | <24 | 126 (≈ 206 µM) | 116 (≈ 191 µM) | 115 (≈ 189 µM) |
| CCO[C@@H]1CN(c2nccc(-c3cccc(C)c3OCc3cc4c(c(OC)c3)CN(C3CCOCC3)CC4)n2)CC[C@@H]1C(=O)O [Compound 248] | 578 | <24 | 91.2 (≈ 148 µM) | 88.9 (≈ 144 µM) | 88.1 (≈ 143 µM) |
| COc1cc(COc2c(C)cccc2-c2cccc(N3CC[C@H](C(=O)O)[C@H](OC)C3)n2)cc2c1CN(C1CCOCC1)CC2 [Compound 249] | 13 | <24 | 129 (≈ 214 µM) | 127 (≈ 211 µM) | 120 (≈ 199 µM) |
| CO[C@H]1CN(c2cccc(-c3cccc(Cl)c3OCc3cc(C)c4c(c3)CCN(C3CCOCC3)C4)n2)CC[C@H]1C(=O)O [Compound 250] | 7 | 33 | 147 (≈ 243 µM) | 82.2 (≈ 136 µM) | 51.9 (≈ 85.6 µM) |
| COc1cc(COc2ccc(C)cc2-c2csc(N3CC[C@@H](C(=O)O)[C@@H](OC)C3)n2)cc2c1CN(C1CCOCC1)CC2 [Compound 254] | 14 | 26 | 118 (≈ 194 µM) | 67.5 (≈ 111 µM) | 2.9 (≈ 4.77 µM) |
| CCO[C@H]1CN(c2cccc(-c3cccc(Cl)c3OCc3cc(C)c4c(c3)CCN(C3CCOCC3)C4)n2)CC[C@H]1C(=O)O [Compound 256] | 3 | 89 | 151 (≈ 243 µM) | 82 (≈ 132 µM) | 57.1 (≈ 92.1 µM) |
| CCO[C@H]1CN(c2cccc(-c3cccc(Cl)c3OCc3cc4c(c(OC)c3)CN(C3CCOCC3)CC4)n2)CC[C@H]1C(=O)O [Compound 257] | 3 | 85 | 164 (≈ 258 µM) | 88.2 (≈ 139 µM) | 59 (≈ 92.7 µM) |
| CCO[C@@H]1CN(c2cccc(-c3cccc(Cl)c3OCc3cc(C)c4c(c3)CCN(C3CCOCC3)C4)n2)CC[C@@H]1C(=O)O [Compound 259] | 65 | 44 | 150 (≈ 241 µM) | 86.8 (≈ 140 µM) | 58 (≈ 93.5 µM) |
| CCO[C@@H]1CN(c2cccc(-c3cccc(Cl)c3OCc3cc4c(c(OC)c3)CN(C3CCOCC3)CC4)n2)CC[C@@H]1C(=O)O [Compound 260] | 56 | 40 | 148 (≈ 233 µM) | 83.9 (≈ 132 µM) | 58.3 (≈ 91.6 µM) |
| CCO[C@H]1CN(c2nc(-c3cccc(Cl)c3OCc3cc4c(c(OC)c3)CN(C3CCOCC3)CC4)cs2)CC[C@H]1C(=O)O [Compound 261] | 3 | 29 | 116 (≈ 180 µM) | 40.7 (≈ 63.4 µM) | 38.9 (≈ 60.6 µM) |
| COC[C@H]1N(c2cccc(-c3cccc(C)c3OCc3ccc4c(c3F)CCN(C3COC3)CC4)n2)C[C@@H]2C[C@@]21C(=O)O [Compound 263] | 7 | <24 | 122 (≈ 207 µM) | 82.8 (≈ 141 µM) | 54.4 (≈ 92.6 µM) |
| COc1cc(COc2c(Cl)cccc2-c2csc(N3CC[C@@H](C(=O)O)[C@@H](OC)C3)n2)cc2c1CN(C1CCOCC1)CC2 [Compound 264] | 4 | <24 | 135 (≈ 215 µM) | 56.6 (≈ 90.1 µM) | 51.8 (≈ 82.5 µM) |
| COc1cc(COc2c(Cl)cccc2-c2csc(N3CC[C@H](C(=O)O)[C@H](OC)C3)n2)cc2c1CN(C1CCOCC1)CC2 [Compound 265] | 15 | <24 | 117 (≈ 187 µM) | 53.7 (≈ 85.5 µM) | 46.7 (≈ 74.3 µM) |

More lines, in order of falling EC50 [1], values ahead:

| EC50 [1] [nM] | Metabolic stability (Qh %), % hepatic blood flow [2] [%] | solubility at 24 h [3, 4] [µg/mL] | solubility at 24 h [3, 5] [µg/mL] | solubility at 24 h [3, 6] [µg/mL] | Compound |
| --- | --- | --- | --- | --- | --- |
| 680 | 50 | 128 (≈ 208 µM) | 127 (≈ 206 µM) | 119 (≈ 193 µM) | CCO[C@H]1CN(c2cccc(-c3cc(C)ccc3OCc3cc4c(c(OC)c3)CN(C3CCOCC3)CC4)n2)CC[C@H]1C(=O)O [Compound 235] |
| 190 | <24 | 135 (≈ 217 µM) | 124 (≈ 200 µM) | 122 (≈ 197 µM) | CCO[C@H]1CN(c2nc(-c3cc(C)ccc3OCc3cc4c(c(OC)c3)CN(C3CCOCC3)CC4)cs2)CC[C@H]1C(=O)O [Compound 233] |
| 66 | <24 | 141 (≈ 245 µM) | 131 (≈ 228 µM) | 129 (≈ 225 µM) | Cc1ccc(OCc2cc(C)c3c(c2)CCN(C2CCOCC2)C3)c(-c2csc(N3CC[C@H](C(=O)O)[C@H](C)C3)n2)c1 [Compound 236] |
| 15 | <24 | 117 (≈ 190 µM) | 114 (≈ 184 µM) | 85.4 (≈ 138 µM) | CCO[C@H]1CN(c2nccc(-c3cccc(C)c3OCc3cc4c(c(OC)c3)CN(C3CCOCC3)CC4)n2)CC[C@H]1C(=O)O [Compound 246] |
| 9 | <24 | 127 (≈ 208 µM) | 7.7 (≈ 12.6 µM) | 1.1 (≈ 1.8 µM) | CO[C@H]1CN(c2nc(-c3cc(C)ccc3OCc3cc(C)c4c(c3F)CCN(C3CCOCC3)C4)cs2)CC[C@H]1C(=O)O [Compound 253] |
| 7 | 25 | 170 (≈ 280 µM) | 69.5 (≈ 115 µM) | 37.7 (≈ 62.2 µM) | CO[C@@H]1CN(c2cccc(-c3cccc(Cl)c3OCc3cc(C)c4c(c3)CCN(C3CCOCC3)C4)n2)CC[C@@H]1C(=O)O [Compound 255] |
| 6 | 36 | 155 (≈ 249 µM) | 90.7 (≈ 146 µM) | 66.6 (≈ 107 µM) | COc1cc(COc2c(Cl)cccc2-c2cccc(N3CC[C@@H](C(=O)O)[C@@H](OC)C3)n2)cc2c1CN(C1CCOCC1)CC2 [Compound 251] |
| 4 | <24 | 112 (≈ 183 µM) | 109 (≈ 179 µM) | 109 (≈ 178 µM) | CCO[C@@H]1CN(c2nc(-c3cccc(C)c3OCc3cc(F)c4c(c3)CCN(C3CCOCC3)C4)cs2)CC[C@@H]1C(=O)O [Compound 238] |
| 4 | <24 | 118 (≈ 193 µM) | 109 (≈ 178 µM) | 107 (≈ 176 µM) | CO[C@@H]1CN(c2nc(-c3cccc(C)c3OCc3cc(F)c4c(c3)CCN(C3CCOCC3)CC4)cs2)CC[C@@H]1C(=O)O [Compound 244] |
| 3 | <24 | 131 (≈ 212 µM) | 124 (≈ 201 µM) | 107 (≈ 174 µM) | COC[C@H]1N(c2cccc(-c3cccc(C)c3OCc3cc(F)c4c(c3)CCN(C3CCOCC3)CC4)n2)C[C@@H]2C[C@@]21C(=O)O [Compound 243] |
| 3 | 25 | 133 (≈ 215 µM) | 94.9 (≈ 154 µM) | 67.4 (≈ 109 µM) | COC[C@H]1N(c2cccc(-c3cccc(C)c3OCc3ccc4c(c3F)CCN(C3CCOCC3)CC4)n2)C[C@@H]2C[C@@]21C(=O)O [Compound 262] |
| 2 | 42.5 | 129 (≈ 207 µM) | 98.5 (≈ 158 µM) | 92.2 (≈ 148 µM) | CCO[C@@H]1CN(c2nc(-c3cccc(C)c3OCc3cc(C)c4c(c3F)CCN(C3CCOCC3)C4)cs2)CC[C@@H]1C(=O)O [Compound 241] |
| 2 | <24 | 133 (≈ 212 µM) | 81.7 (≈ 131 µM) | 72.9 (≈ 116 µM) | COc1cc(COc2c(C)cccc2-c2csc(N3CC[C@@H](C(=O)O)[C@@H](OC)C3)n2)c(F)c2c1CN(C1CCOCC1)CC2 [Compound 252] |
